Results from article PMC6120666 (The EMBO Journal, 2018).

Key:
[1] = target: T1, proteins of U2OS cell lysate (Homo sapiens, UniProt O00264); assay: Drug affinity chromatography with c-ponatinib and LC-MS/MS (ponatinib interactome); type: binding; conditions: PGRMC1, Membrane-associated progesterone receptor component 1
T1 construct: Proteins enriched by c-ponatinib from U2OS cell lysate; endogenous in cells; host or cells: U2OS cell lysate
How it was run: (§1)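 U2OS cell lysate in NP-40 lysis buffer (2 mg protein per pulldown) was incubated with amine-derivatized NHS beads for 2 h at 4 °C. Bound proteins were washed, eluted with 100 mM formic acid, reduced, alkylated and trypsin-digested, then identified by nano-UPLC–MS/MS on Orbitrap instruments with a 60 min gradient.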

[2] = target: T2, proteins of U2OS cell lysate (Homo sapiens, UniProt O75521); assay: as above; type: binding; conditions: ECI2, Enoyl-CoA delta isomerase 2, mitochondrial
T2 construct: Proteins enriched by c-ponatinib from U2OS cell lysate; endogenous in cells; host or cells: U2OS cell lysate
How it was run: as §1

[3] = target: T3, proteins of U2OS cell lysate (Homo sapiens, UniProt P07900); assay: as above; type: binding
T3 construct: Proteins enriched by c-ponatinib from U2OS cell lysate; endogenous in cells; host or cells: U2OS cell lysate
How it was run: as §1

[4] = target: T4, proteins of U2OS cell lysate (Homo sapiens, UniProt P07947); assay: as above; type: binding; conditions: YES1, Tyrosine-protein kinase Yes
T4 construct: Proteins enriched by c-ponatinib from U2OS cell lysate; endogenous in cells; host or cells: U2OS cell lysate
T4 sequence (P07947 whole entry): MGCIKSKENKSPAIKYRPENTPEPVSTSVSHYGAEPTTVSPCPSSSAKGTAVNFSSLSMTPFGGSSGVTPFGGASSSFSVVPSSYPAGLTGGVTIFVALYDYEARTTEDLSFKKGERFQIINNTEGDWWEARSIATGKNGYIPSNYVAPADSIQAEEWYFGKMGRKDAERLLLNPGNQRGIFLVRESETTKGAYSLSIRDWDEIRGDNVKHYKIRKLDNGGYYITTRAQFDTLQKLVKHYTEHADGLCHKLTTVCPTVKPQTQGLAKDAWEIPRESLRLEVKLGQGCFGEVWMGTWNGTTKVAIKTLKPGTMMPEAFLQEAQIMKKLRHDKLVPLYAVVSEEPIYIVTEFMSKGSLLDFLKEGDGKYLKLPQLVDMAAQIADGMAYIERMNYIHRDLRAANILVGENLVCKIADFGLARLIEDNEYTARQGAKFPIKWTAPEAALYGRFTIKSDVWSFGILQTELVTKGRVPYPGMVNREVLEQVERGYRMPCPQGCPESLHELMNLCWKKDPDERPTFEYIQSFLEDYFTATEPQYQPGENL
How it was run: as §1

[5] = target: T5, proteins of U2OS cell lysate (Homo sapiens, UniProt P13073); assay: as above; type: binding
T5 construct: Proteins enriched by c-ponatinib from U2OS cell lysate; endogenous in cells; host or cells: U2OS cell lysate
T5 sequence (P13073 23-169): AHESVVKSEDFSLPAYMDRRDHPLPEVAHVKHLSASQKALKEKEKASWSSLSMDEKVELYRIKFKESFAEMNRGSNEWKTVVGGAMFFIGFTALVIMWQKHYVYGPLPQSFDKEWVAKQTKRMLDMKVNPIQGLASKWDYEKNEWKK
How it was run: as §1

[6] = target: T6, proteins of U2OS cell lysate (Homo sapiens, UniProt P35659); assay: as above; type: binding; conditions: DEK, Protein DEK
T6 construct: Proteins enriched by c-ponatinib from U2OS cell lysate; endogenous in cells; host or cells: U2OS cell lysate
How it was run: as §1

[7] = target: T7, proteins of U2OS cell lysate (Homo sapiens, UniProt P49006); assay: as above; type: binding
T7 construct: Proteins enriched by c-ponatinib from U2OS cell lysate; endogenous in cells; host or cells: U2OS cell lysate
T7 sequence (P49006 whole entry): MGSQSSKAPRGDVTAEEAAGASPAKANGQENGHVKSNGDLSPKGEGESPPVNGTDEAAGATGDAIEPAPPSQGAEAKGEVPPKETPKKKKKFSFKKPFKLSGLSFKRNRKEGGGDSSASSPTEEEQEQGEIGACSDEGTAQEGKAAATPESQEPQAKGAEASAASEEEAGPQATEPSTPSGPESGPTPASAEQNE
How it was run: as §1

[8] = target: T8, proteins of U2OS cell lysate (Homo sapiens, UniProt P51665); assay: as above; type: binding; conditions: PSMD7, 26S proteasome non-ATPase regulatory subunit 7
T8 construct: Proteins enriched by c-ponatinib from U2OS cell lysate; endogenous in cells; host or cells: U2OS cell lysate
T8 sequence (P51665 whole entry): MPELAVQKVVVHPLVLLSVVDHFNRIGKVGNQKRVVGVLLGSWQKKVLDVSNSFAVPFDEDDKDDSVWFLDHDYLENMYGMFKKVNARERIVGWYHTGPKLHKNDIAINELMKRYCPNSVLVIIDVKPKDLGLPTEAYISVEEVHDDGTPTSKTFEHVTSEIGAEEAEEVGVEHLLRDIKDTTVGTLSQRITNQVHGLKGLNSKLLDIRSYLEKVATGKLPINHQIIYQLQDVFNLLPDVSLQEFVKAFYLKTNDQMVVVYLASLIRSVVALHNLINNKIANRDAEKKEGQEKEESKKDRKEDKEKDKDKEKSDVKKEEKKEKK
How it was run: as §1

[9] = target: T9, proteins of U2OS cell lysate (Homo sapiens, UniProt P54760); assay: as above; type: binding; conditions: EPHB4, Ephrin type-B receptor 4
T9 construct: Proteins enriched by c-ponatinib from U2OS cell lysate; endogenous in cells; host or cells: U2OS cell lysate
T9 sequence (P54760 16-987): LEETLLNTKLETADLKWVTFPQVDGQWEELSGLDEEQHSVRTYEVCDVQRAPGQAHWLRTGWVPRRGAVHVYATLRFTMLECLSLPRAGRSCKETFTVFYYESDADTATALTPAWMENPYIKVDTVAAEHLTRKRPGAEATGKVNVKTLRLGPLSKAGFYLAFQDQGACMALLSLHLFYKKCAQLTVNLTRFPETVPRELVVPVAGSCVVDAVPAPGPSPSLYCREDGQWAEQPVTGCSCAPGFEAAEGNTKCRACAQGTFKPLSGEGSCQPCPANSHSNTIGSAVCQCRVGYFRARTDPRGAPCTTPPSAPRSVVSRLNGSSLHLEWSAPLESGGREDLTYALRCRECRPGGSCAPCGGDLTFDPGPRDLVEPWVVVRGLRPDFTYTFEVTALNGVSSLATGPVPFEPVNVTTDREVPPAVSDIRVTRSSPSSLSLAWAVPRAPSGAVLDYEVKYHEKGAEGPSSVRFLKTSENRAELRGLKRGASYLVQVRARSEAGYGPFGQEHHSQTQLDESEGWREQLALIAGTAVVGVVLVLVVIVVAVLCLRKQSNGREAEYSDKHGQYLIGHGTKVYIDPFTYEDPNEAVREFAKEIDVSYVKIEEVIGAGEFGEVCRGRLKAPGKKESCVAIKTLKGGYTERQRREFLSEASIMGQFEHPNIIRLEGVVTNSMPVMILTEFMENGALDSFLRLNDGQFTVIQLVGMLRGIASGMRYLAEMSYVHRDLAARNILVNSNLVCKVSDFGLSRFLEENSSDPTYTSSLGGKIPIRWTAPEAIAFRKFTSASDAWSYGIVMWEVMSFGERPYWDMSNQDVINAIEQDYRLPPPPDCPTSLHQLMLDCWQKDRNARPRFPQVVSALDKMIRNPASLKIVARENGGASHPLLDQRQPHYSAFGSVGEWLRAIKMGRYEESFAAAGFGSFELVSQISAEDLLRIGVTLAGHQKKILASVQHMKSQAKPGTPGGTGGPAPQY
How it was run: as §1

[10] = target: T10, proteins of U2OS cell lysate (Homo sapiens, UniProt P60660); assay: as above; type: binding; conditions: MYL6, Myosin light polypeptide 6
T10 construct: Proteins enriched by c-ponatinib from U2OS cell lysate; endogenous in cells; host or cells: U2OS cell lysate
T10 sequence (P60660 whole entry): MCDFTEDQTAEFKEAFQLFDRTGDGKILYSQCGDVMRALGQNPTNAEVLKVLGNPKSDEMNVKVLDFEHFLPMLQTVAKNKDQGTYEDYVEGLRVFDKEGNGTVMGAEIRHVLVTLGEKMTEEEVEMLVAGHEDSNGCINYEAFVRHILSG
How it was run: as §1

[11] = target: T11, proteins of U2OS cell lysate (Homo sapiens, UniProt P62195); assay: as above; type: binding
T11 construct: Proteins enriched by c-ponatinib from U2OS cell lysate; endogenous in cells; host or cells: U2OS cell lysate
T11 sequence (P62195 whole entry): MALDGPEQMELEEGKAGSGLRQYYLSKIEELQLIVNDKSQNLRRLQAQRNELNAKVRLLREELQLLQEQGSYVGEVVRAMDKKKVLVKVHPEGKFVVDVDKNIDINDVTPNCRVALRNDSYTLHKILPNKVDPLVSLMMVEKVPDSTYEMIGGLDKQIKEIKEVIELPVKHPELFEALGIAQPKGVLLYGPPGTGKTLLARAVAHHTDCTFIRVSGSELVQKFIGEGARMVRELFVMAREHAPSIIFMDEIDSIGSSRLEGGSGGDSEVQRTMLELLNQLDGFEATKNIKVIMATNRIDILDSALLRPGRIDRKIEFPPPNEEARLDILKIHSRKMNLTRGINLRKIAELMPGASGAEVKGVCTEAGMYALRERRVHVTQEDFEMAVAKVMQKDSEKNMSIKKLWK
How it was run: as §1

[12] = target: T12, proteins of U2OS cell lysate (Homo sapiens, UniProt Q15393); assay: as above; type: binding
T12 construct: Proteins enriched by c-ponatinib from U2OS cell lysate; endogenous in cells; host or cells: U2OS cell lysate
T12 sequence (Q15393 whole entry): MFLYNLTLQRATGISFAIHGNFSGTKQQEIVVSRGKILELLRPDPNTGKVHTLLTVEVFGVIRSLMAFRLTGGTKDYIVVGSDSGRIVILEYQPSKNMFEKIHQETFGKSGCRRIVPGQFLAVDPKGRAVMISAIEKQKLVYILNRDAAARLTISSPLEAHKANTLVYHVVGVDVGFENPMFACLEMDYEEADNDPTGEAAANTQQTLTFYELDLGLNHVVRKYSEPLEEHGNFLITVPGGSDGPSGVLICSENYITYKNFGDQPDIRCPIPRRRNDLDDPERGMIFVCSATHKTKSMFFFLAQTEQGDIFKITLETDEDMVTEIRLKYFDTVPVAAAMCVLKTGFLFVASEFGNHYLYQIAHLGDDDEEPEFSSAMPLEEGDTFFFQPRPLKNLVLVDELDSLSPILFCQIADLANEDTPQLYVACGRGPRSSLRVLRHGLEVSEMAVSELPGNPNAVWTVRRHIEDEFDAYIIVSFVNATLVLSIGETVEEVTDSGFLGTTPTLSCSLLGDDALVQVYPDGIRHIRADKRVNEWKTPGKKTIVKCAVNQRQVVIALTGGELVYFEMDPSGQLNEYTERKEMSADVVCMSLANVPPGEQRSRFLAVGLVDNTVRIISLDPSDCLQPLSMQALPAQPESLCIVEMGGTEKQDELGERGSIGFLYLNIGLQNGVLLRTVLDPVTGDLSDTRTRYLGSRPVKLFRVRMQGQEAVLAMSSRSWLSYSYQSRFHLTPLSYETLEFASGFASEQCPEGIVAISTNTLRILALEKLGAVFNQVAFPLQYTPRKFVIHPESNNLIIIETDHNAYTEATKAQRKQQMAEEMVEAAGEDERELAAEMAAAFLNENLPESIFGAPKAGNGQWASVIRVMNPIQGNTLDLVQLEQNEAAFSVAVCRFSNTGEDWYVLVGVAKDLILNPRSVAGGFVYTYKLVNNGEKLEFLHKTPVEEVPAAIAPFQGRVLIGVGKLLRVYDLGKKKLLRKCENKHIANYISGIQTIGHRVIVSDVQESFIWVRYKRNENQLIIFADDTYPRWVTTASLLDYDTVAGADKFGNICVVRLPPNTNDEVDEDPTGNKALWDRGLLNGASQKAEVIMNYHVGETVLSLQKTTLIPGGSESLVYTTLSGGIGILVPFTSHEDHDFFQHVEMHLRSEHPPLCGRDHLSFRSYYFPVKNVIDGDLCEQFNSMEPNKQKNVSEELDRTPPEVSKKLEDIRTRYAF
How it was run: as §1

[13] = target: T13, proteins of U2OS cell lysate (Homo sapiens, UniProt Q15750); assay: as above; type: binding; conditions: TAB1, TGF-beta-activated kinase 1 and MAP3K7-binding protein 1
T13 construct: Proteins enriched by c-ponatinib from U2OS cell lysate; endogenous in cells; host or cells: U2OS cell lysate
How it was run: as §1

[14] = target: T14, proteins of U2OS cell lysate (Homo sapiens, UniProt Q16181); assay: as above; type: binding; conditions: SEPT7;DKFZp586I031, Septin-7
T14 construct: Proteins enriched by c-ponatinib from U2OS cell lysate; endogenous in cells; host or cells: U2OS cell lysate
How it was run: as §1

[15] = target: T15, proteins of U2OS cell lysate (Homo sapiens, UniProt Q6PHR2); assay: as above; type: binding; conditions: ULK3, Serine/threonine-protein kinase ULK3
T15 construct: Proteins enriched by c-ponatinib from U2OS cell lysate; endogenous in cells; host or cells: U2OS cell lysate
T15 sequence (Q6PHR2 whole entry): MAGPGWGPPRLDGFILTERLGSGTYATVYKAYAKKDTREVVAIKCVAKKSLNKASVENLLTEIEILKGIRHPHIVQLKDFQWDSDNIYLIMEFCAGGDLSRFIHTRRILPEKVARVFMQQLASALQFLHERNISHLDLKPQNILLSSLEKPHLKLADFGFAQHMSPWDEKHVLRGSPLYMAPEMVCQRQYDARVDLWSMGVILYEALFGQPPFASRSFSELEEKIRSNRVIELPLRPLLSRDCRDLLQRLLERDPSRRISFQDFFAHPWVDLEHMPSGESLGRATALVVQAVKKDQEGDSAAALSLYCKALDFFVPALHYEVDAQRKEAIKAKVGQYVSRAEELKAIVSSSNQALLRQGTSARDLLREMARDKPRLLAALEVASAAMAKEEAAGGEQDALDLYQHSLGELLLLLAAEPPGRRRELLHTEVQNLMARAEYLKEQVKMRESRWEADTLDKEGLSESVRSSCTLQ
How it was run: as §1

[16] = target: T16, proteins of U2OS cell lysate (Homo sapiens, UniProt Q96RR4); assay: as above; type: binding; conditions: CAMKK2, Calcium/calmodulin-dependent protein kinase kinase 2
T16 construct: Proteins enriched by c-ponatinib from U2OS cell lysate; endogenous in cells; host or cells: U2OS cell lysate
How it was run: as §1

[17] = target: T17, proteins of U2OS cell lysate (Homo sapiens, UniProt Q9Y5L0); assay: as above; type: binding; conditions: TNPO3, Transportin-3
T17 construct: Proteins enriched by c-ponatinib from U2OS cell lysate; endogenous in cells; host or cells: U2OS cell lysate
How it was run: as §1

[18] = target: T18, proteins of U2OS cell lysate (Homo sapiens, UniProt P21796); assay: as above; type: binding; conditions: captured protein VDAC1, Rank 118
T18 construct: Proteins enriched by c-ponatinib from U2OS cell lysate; endogenous in cells; host or cells: U2OS cell lysate
T18 sequence (P21796 whole entry): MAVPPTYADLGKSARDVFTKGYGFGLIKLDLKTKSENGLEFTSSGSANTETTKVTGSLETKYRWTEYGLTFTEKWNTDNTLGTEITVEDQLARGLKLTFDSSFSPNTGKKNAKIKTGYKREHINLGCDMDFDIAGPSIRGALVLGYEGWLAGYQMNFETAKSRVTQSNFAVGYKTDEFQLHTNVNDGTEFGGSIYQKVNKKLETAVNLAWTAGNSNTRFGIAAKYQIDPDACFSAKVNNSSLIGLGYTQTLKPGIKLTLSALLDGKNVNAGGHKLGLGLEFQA
How it was run: as §1

[19] = tested on: C57Bl6/J mice; set-up: method as in Nachbur et al, 2015; conditions: ref Nachbur et al, 2015; cited from earlier work

T1 sequence (O00264 whole entry): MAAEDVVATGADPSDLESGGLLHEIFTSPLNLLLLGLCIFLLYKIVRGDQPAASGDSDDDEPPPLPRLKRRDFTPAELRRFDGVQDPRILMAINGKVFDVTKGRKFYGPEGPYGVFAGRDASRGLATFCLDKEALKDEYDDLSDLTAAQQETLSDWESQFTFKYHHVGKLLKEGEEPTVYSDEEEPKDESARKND

## Cc1ccc(C(=O)Nc2ccc(CN3CCN(C)CC3)c(C(F)(F)F)c2)cc1C#Cc1cnc2cccnn12 [PON]
[1]
  Average LFQ PON_WT: 23.2724
[2]
  Average LFQ PON_WT: 24.0947
[3]; HSP90AA1, Heat shock protein HSP 90-alpha
  Average LFQ PON_WT: 21.9345
[4]
  Average LFQ PON_WT: 25.9404
[5]; COX4I1, Cytochrome c oxidase subunit 4 isoform 1, mitochondrial
  Average LFQ PON_WT: 21.5292
[6]
  Average LFQ PON_WT: 19.6049
[7]; MARCKSL1, MARCKS-related protein
  Average LFQ PON_WT: 21.5548
[8]
  Average LFQ PON_WT: 21.0889
[9]
  Average LFQ PON_WT: 25.577
[10]
  Average LFQ PON_WT: 23.7934
[11]; PSMC5, 26S protease regulatory subunit 8
  Average LFQ PON_WT: 22.2388
[12]; SF3B3, Splicing factor 3B subunit 3
  Average LFQ PON_WT: 22.7469
[13]
  Average LFQ PON_WT: 26.3342
[14]
  Average LFQ PON_WT: 23.204
[15]
  Average LFQ PON_WT: 24.6179
[16]
  Average LFQ PON_WT: 20.0519
[17]
  Average LFQ PON_WT: 20.3086

## Cc1ccc(C(=O)Nc2ccc(CN3CCN(CCCN)CC3)c(C(F)(F)F)c2)cc1C#Cc1cnc2cccnn12 [c-ponatinib, reference compound]
[3]; captured protein HSP90AA1, Rank 195
  Average LFQ intensity: 21.9345
[5]; captured protein COX4I1, Rank 227
  Average LFQ intensity: 21.5292
[18]
  Average LFQ intensity: 23.117
[7]; captured protein MARCKSL1, Rank 225
  Average LFQ intensity: 21.5548
[11]; captured protein PSMC5, Rank 176
  Average LFQ intensity: 22.2388
[12]; captured protein SF3B3, Rank 141
  Average LFQ intensity: 22.7469

## Cc1ccc(-c2nn(C(C)(C)CNC(=O)c3ccncc3)c3ncnc(N)c23)cc1 [WEHI‐345, reference compound]
[19]
  increase in serum levels of TNF in mice challenged with MDP: only partially inhibited
